One test deals with Proteus mirabilis GN79. The test is described as follows: Example 7: experimental infection in mice, ampicillin with or without native lactoferrin. The format is in vivo, strain ddY. As to conditions: GN79, po, 168 h, 1.3 × 10^6 CFU/mouse. How it is done:
(§1) For ED50 values, a range of amounts of antibiotics is given in the examples (e.g., penicillin G: 0.4, 0.2, 0.1, 0.05 mg/mouse). To calculate the ED50, groups of mice in the monotherapy groups and groups of mice in the combined therapy groups received the indicated amount of antibiotic (e.g., one group received 0.4 mg/mouse of penicillin G, one group received 0.2 mg/mouse of penicillin G, one group received 0.1 mg/mouse of penicillin G, one group received 0.05 mg/mouse of penicillin G).
Male mice, strain ddY, five weeks old, were randomly allocated into groups (n=10), and were intraperitoneally injected with Proteus mirabilis GN79 (1.3×10^6 CFU/mouse) or with Escherichia coli #11 (1.7×10^6 CFU/mouse) or with Klebsiella pneumoniae 3K25 (1.5×10^6 CFU/mouse). The doses are 1,000 times greater than the minimum lethal dose. Immediately after the injection, the first eight groups were orally given ampicillin, the second eight groups were orally given cephalexin, and the third eight groups were orally given cefaclor, respectively, each simultaneously with or without native lactoferrin (1 mg/mouse) in 0.2 ml of distilled water (see Table 7). All the mice were fed ad libitum and observed for one week under the same conditions as described in Example 1.

The subject of another test is Escherichia coli #11. Description: Example 6: experimental infection in mice, ampicillin with or without apolactoferrin. The format is in vivo, strain ddY. As to conditions: p.o. immediately after 1.2×10^6 CFU/mouse. How it is done: as §1
Male mice, strain ddY, five weeks old, weighing an average of 21.5 g, were randomly allocated into groups (n=10), and they were intraperitoneally injected with Escherichia coli #11, 1.2×10^6 CFU/mouse. Immediately after the injection, the untreated control group was orally given 0.2 ml of distilled water, the second through the fifth groups were treated once orally by ampicillin (8, 4, 2 and 1 mg/mouse), and the sixth through the ninth groups with ampicillin (4, 2, 1 and 0.5 mg/mouse) plus apolactoferrin (1 mg/mouse) in 0.2 ml of distilled water. The mice were fed ad libitum and observed for one week under the same conditions as described in Example 1. […] It is apparent from the results that lactoferrin not only potentiates the efficacy of the cephalosporin class but also the penicillin class of antibiotics.

Test [1] deals with Klebsiella pneumoniae 3K25. Description: Example 7: experimental infection in mice, cefaclor with or without native lactoferrin. In kind it is in vivo, strain ddY. The conditions noted are these: Klebsiella pneumoniae, 3K25, po, 168 h, 1.5 × 10^6 CFU/mouse.
Test [2] relates to Klebsiella pneumoniae strain 3K25. Description: Example 3: experimental infection in mice, cefaclor with or without hololactoferrin. The format is in vivo, strain ICR. As to conditions: p.o. 1 h after 1×10^6 CFU/mouse. How it is done:
as §1
Sixty male mice, strain ICR, five weeks of age, weighing 21.3±1.5 g (mean±the standard deviation) were randomly allocated into ten groups (n=6), and intraperitoneally injected with Klebsiella pneumoniae strain 3K25, 1×10^6 CFU/mouse. One hour after the injection, the first group was orally given 0.2 ml of physiological saline, the second group orally given hololactoferrin (100% ferric ion saturated lactoferrin, 0.4 mg/mouse), the third through the sixth groups orally given cefaclor (2.0, 1.0, 0.5 and 0.25 mg/mouse each) in 0.2 ml of saline, and the seventh through the tenth groups orally given cefaclor (2.0, 1.0, 0.5 and 0.25 mg/mouse each) and hololactoferrin (100% iron saturated lactoferrin, 0.4 mg/mouse) in 0.2 ml of saline. The mice were fed ad libitum and observed for one week under the same conditions as described in Example 1.

For a further test, the system named is bacteria in urine. Description: Example 11: patients with chronic urinary tract infection, cefaclor with or without apolactoferrin. As to conditions: four weeks. In kind it is in vivo, human patients. How it is done: Seventeen patients (male 6, female 11, an average 63.5 years old) with chronic urinary tract infection were randomly allocated into two groups. All these patients excreted at least one species of bacteria in their urine for longer than four weeks, although they were treated orally with antibacterial agents. The first group (n=9) was treated for four weeks with 1,200 mg of cefaclor (400 mg, three times a day) and the second group (n=8) with the same dose of cefaclor (three times a day) combined with 600 mg of apolactoferrin (200 mg, three times a day). Urine specimens were collected every one week and the species of bacteria were identified and the quantity of excreted bacteria determined.

In test [3] the test system is Klebsiella pneumoniae strain 3K25. Description: Example 4: experimental infection in mice, cefotetan with or without native lactoferrin. In kind it is in vivo. The conditions noted are these: p.o. 1 h after 1×10^6 CFU/mouse. As for the experimental part: as §1
The experimental design is similar to that of Example 3. The mice groups (n=6) were intraperitoneally injected with Klebsiella pneumoniae strain 3K25, 1×10^6 CFU/mouse, and one hour after the injection, orally active cephalosporin, cefotetan (2.0, 1.0, 0.5 and 0.25 mg/mouse) was orally administered with or without native lactoferrin (0.4 mg/mouse) in 0.2 ml physiological saline.

With `CC1(C)S[C@@H]2[C@H](NC(=O)[C@H](N)c3ccccc3)C(=O)N2[C@H]1C(=O)O` [ampicillin], the ED50 came out at 133 mg/kg with Proteus mirabilis GN79 (ampicillin alone), 24.9 mg/kg with Proteus mirabilis GN79 (ampicillin with lactoferrin (1 mg/mouse)), 0.75 mg/mouse in the test with Escherichia coli #11 (ampicillin combined therapy with apolactoferrin (1 mg/mouse)) and 6.02 mg/mouse in the test with Escherichia coli #11 (ampicillin monotherapy).
As to `N[C@@H](C(=O)N[C@@H]1C(=O)N2C(C(=O)O)=C(Cl)CS[C@H]12)c1ccccc1` [cefaclor], the ED50 in test [1] (cefaclor alone) was found to be 28.5 mg/kg; in test [1] (cefaclor with lactoferrin (1 mg/mouse)), 10 mg/kg; in test [2] (cefaclor combined therapy with hololactoferrin (0.4 mg/mouse)) it was 0.30 mg/mouse; in test [2] (cefaclor monotherapy), 0.63 mg/mouse. Also, in the test on bacteria in urine (cefaclor 1,200 mg combined with 600 mg apolactoferrin daily), the “bacteria in the urine” value was “bacteria were no longer detected in the urine”. For the same compound, in the test with bacteria in urine (cefaclor monotherapy 1,200 mg daily), the “patients still excreting bacteria” value is on record as “six patients out of nine”. The “efficacy of combined therapy versus monotherapy” value in the test with bacteria in urine (cefaclor with apolactoferrin) is listed as “significantly more effective”.
For `CO[C@@]1(NC(=O)C2SC(=C(C(N)=O)C(=O)O)S2)C(=O)N2C(C(=O)O)=C(CSc3nnnn3C)CS[C@@H]21` (stereo partly shown) [cefotetan], the values for the ED50 in test [3] (cefotetan combined therapy with native lactoferrin (0.4 mg/mouse)) and in test [3] (cefotetan monotherapy) were 0.16 mg/mouse and 0.50 mg/mouse, respectively.

The values are drawn from patent publication US5198419A, “Formulated medicines for enhancing the efficacy of beta-lactam antibiotics in prophylaxis and treatment against infectious disease due to pathogenic bacteria” (Immuno Japan Inc., priority 1989, dated 1993).
